One molecule from article PMC2719696, “Kinetics and Cellular Site of Glycolipid Loading Control the Outcome of Natural Killer T Cell Activation” (Immunity, 2009) can be followed below.

The target in the assay is T1, hCD1d (Homo sapiens, UniProt P15813).
T1 construct: made in house
The assay is described as follows: Loading of hCD1d tetramers with or without 0.05% Triton X-100, staining of hybridoma DN3A4.1-2. Format: binding. The text has this:
The efficient loading of CD1 molecules with lipids such as αGalCer-C26:0 is known to involve cofactors that enhance the transfer of lipids from micelles or membranes into the antigen-binding groove of the CD1 protein. The best known of these cofactors are resident intracellular lipid binding and transfer proteins including those belonging to the saposin family, GM2 activator proteins, and Niemann-Pick type C1 and C2 proteins ([Zhou et al., 2004; Sagiv et al., 2006; Yuan et al., 2007; Schrantz et al., 2007]). Most of these are known to have detergent-like activities that facilitate solubilization of lipids and their exchange between hydrophobic binding sites. […]
Figure 5 Lack of Detergent-like Cofactor Dependence of Th2 Cell-Type Cytokine-Biasing αGalCer Analogs (A) Glycolipids were incubated for 24 hr at 37°C with murine CD1d proteins in the absence (top row) or presence (bottom row) of 0.05% Triton X-100. […] After washing, DN32.D3 iNKT hybridoma cells were added and supernatant concentrations of IL-2 were determined after an additional 14 hr of incubation. […]
Recombinant CD1d proteins were produced and assembled into tetramers for staining as previously described ([Forestier et al., 2007]). […] All samples were analyzed with the FACSCalibur flow cytometer (BD Biosciences).

T1 sequence (P15813 20-301 limits assumed): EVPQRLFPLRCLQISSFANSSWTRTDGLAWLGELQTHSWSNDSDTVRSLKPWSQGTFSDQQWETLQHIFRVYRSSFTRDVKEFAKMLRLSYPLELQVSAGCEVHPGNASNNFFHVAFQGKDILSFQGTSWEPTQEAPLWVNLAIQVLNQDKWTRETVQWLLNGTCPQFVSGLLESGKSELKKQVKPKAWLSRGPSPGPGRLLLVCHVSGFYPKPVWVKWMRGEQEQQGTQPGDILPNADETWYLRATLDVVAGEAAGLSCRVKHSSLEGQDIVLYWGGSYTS
T1 sequence (P61769 21-119 partner): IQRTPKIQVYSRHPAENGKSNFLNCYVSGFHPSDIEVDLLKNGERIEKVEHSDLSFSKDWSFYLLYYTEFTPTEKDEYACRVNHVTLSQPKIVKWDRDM

On to `CCCCCCCCCCCCCCCCCCCCCCCC(=O)NC(COC1OC(CO)C(O)C(O)C1O)C(O)C(O)CCCCC` (stereo not shown) [OCH], for which the “formation of hCD1d tetramers with iNKT cell-binding avidity” value is reported as “failed to form hCD1d tetramers with iNKT cell-binding avidity under any conditions”.
